Values joined by “and” are separate entries in the source; they are usually repeats but may differ in a detail not shown here. Equal entries are not always repeated.
Assays:
MCF7 cells = experiment: MTT antiproliferative assay, MCF7; format: cell-based, human; conditions: for IC50: MTT, 24 h incubation; for Selectivity MCF7: Selectivity index = L929 IC50 / MCF7 IC50 (24 h)
Description: (§1) Cell culture experiments were performed to assess the antiproliferative efficacy of the synthesized benzothiazole compounds on the MCF7 and MDA‐MB‐231 cell lines. The anticancer activity of the compounds were compared with the L929 healthy cell line as a control. Doxorubicin and cisplatin, the anticancer agents, were employed as positive controls.
(§2) Human epithelial breast adenocarcinoma (MDA‐MB‐231) (ATCC® HTB‐26™), human epithelial breast adenocarcinoma (MCF7) (ATCC® HTB‐22™), and healthy mouse fibroblast (L929) (ATCC® CRL‐10317™) cells were obtained commercially from ATCC.
(§3) MDA‐MB‐231, MCF7, and L929 cells were seeded in 25 cm² flasks. DMEM medium containing 10% FBS, 1% Penicillin‐Streptomycin, L‐Glutamine, and NaHCO₃ was used as the cell culture medium. The cells were incubated and propagated at 37°C in an environment containing 5% CO₂ and 95% humidity. When the cells reached 80%–90% confluency, they were passaged to different media. During passaging, DMEM was first withdrawn, and the cells were washed with PBS to remove FBS from the medium. Then, Trypsin‐EDTA solution was added to the flask to detach the cells, and the flask was kept in a CO₂ incubator for approximately 1 min. To stop the activity of Trypsin‐EDTA medium containing FBS was added to the flask. The cells were collected into a Falcon tube and centrifuged at 800 rpm for 5 min at room temperature. The supernatant was discarded, and the cell pellet was resuspended in the medium and seeded on cell culture plates according to the experimental protocol.
(§4) A total of 2 mg of each compound was dissolved in an appropriate amount of dimethyl sulfoxide (DMSO) to prepare 10 mM stock solutions. These stock solutions were then diluted to create 100 μM intermediate stocks and stored at −80°C. Commercially purchased cisplatin and doxorubicin HCl (Sigma, St. Louis, MO) were dissolved in DMSO following the manufacturer's protocol to create 20 mM stock solutions. These standard drug molecules were diluted from the stock solution, divided into 100 μM aliquots, and stored at –80°C until use.
(§5) MTT analysis was performed to evaluate the in vitro cytotoxicity of the synthesized compounds against different cancer cell lines. Cells used in the cytotoxicity experiments were cultured in DMEM medium supplemented with 10% FBS. Cells suspended in the medium (2 × 10⁴ cells/mL) were seeded into 96‐well culture plates and incubated at 37°C in a 5% CO₂ incubator. After 12 h, compounds were added at different doses (2 µL) to cells (2 × 10⁴) in the 96‐well plates and incubated at 37°C for 24 h.
(§6) The incubated cells were then treated with 20 µL of MTT solution and incubated at 37°C for 4 h. The supernatant was carefully removed from each well, and 100 µL of DMSO was added to each well to dissolve the formazan crystals formed by the cellular reduction of MTT. The absorbance was measured at 570 nm using an ELISA reader. […] At the end of the experiment, the device calculated the IC50 value for each well, and the average values were recorded. Each experiment was performed in at least three replicates.

MDA‐MB‐231 cells = experiment: MTT antiproliferative assay, MDA-MB-231; format: cell-based, human; conditions: for IC50: MTT, 24 h incubation; for Selectivity MDA‐MB‐231: Selectivity index = L929 IC50 / MDA‐MB‐231 IC50 (24 h)
Description: as §1, §2, §3, §4, §5, §6

L929 cells = experiment: MTT cytotoxicity assay, L929 healthy cells; format: cell-based; conditions: healthy mouse fibroblast
Description: as §1, §2, §3, §4, §5, §6

p38 MAPKα = experiment: p38 MAPK alpha ELISA, total level in treated MCF7 cells normalised to total protein (BCA); format: cell-based, human; conditions: MCF7 cells exposed to compound
Description: To account for variations in protein quantities among the cells. The total protein concentrations in cells subjected to the drugs were quantified. The p38 MAPKα levels were adjusted by dividing by the protein levels, yielding results represented as ng/μg protein (Table 3).
A bicinchoninic acid (BCA) protein assay kit (catalog no. 23227) was obtained from Thermo‐Fisher Scientific (IL, USA) and used to detect total protein by the BCA assay. In this assay, the reaction between BCA, Cu²⁺ ions, and Cu⁺ ions form a purple complex in alkaline conditions. The absorbance of this complex was measured at 562 nm, and the results were expressed in mg/mL.
The p38 MAPK alpha ELISA Kit (ab221012; Abcam, Cambridge, MA) was used to measure the levels of […] in cell lysates according to the manufacturer's instructions. The SimpleStep Enzyme‐Linked Immunosorbent Assay (ELISA) kit was designed to assess total p38 MAPKα protein semi‐quantitatively. The SimpleStep ELISA uses a reporter‐conjugated detection antibody, and an affinity‐tag labeled capture antibody to immunocapture the sample analyte in solution. An anti‐tag antibody coating the well immobilizes the entire complex (capture antibody, analyte, and detection antibody).
Samples or controls were added to the wells, followed by the Antibody Cocktail to complete the test. After incubation, the wells were washed to remove unbound material. […] The levels of MAPK were normalized to total protein content.

SMILES | IC50 (MCF7 cells; Homo sapiens, MCF7) [µM] | Selectivity MCF7 (MCF7 cells) | IC50 (MDA‐MB‐231 cells; Homo sapiens, MDA-MB-231) [µM] | Selectivity MDA‐MB‐231 (MDA‐MB‐231 cells) | IC50 (L929 cells; L929, 24 h incubation) [µM] | Total p38α MAPK levels (p38 MAPKα) | IC50 (MCF7 cells) [µM] | IC50 (MDA‐MB‐231 cells) [µM] | IC50 (L929 cells; 24 h incubation) [µM]
O=C(Nc1nc2ccccc2s1)c1ccc(Br)cc1 [Compound 5, N‐(Benzo[d]thiazol‐2‐yl)‐4‐bromobenzamide] | 12.9 ± 0.37 | 2.399 | 15.3 ± 0.32 | 2.033 | 31 ± 0.66 | – | – | – | –
O=C(Cc1ccccc1)Nc1nc2ccccc2s1 [Compound 19, N‐(Benzo[d]thiazol‐2‐yl)‐2‐phenylacetamide] | 6.19 ± 1.05 | 15.171 | 10.74 ± 0.03 | 8.744 | 93.9 ± 1.9 | 0.112 ng/μg protein and 0.112 ± 0.001 ng/μg protein | – | – | –
O=C(NCc1nc2ccccc2s1)c1ccc(F)cc1 [Compound 12, N‐(Benzo[d]thiazol‐2‐ylmethyl)‐4‐fluorobenzamide] | 21.1 ± 0.46 | 2.038 | 15 ± 0.26 | 2.869 | 43 ± 0.56 | – | – | – | –
O=C(Cc1cccs1)NCc1nc2ccccc2s1 [Compound 28, N‐(Benzo[d]thiazol‐2‐ylmethyl)‐2‐(thiophen‐2‐yl) acetamide] | – | 2.794 | – | 1.655 | – | 2.542 ± 0.228 ng/μg protein | 11.1 ± 0.37 | 18.8 ± 0.23 | 31 ± 0.33
COc1ccc(C(=O)NCc2nc3ccccc3s2)cc1 [Compound 17, N‐(Benzo[d]thiazol‐2‐ylmethyl)‐4‐methoxybenzamide] | 11.1 ± 0.23 | 2.271 | 16.7 ± 0.36 | 1.499 | 25.09 ± 0.18 | 6.411 ± 1.604 ng/μg protein | – | – | –
O=C(Cc1ccc(Cl)cc1)Nc1nc2ccccc2s1 [Compound 23, N‐(Benzo[d]thiazol‐2‐yl)‐2‐(4‐chlorophenyl) acetamide] | – | 6.550 | – | 7.666 | – | 2.331 ± 1.241 ng/μg protein | 8.24 ± 0.19 | 7.04 ± 0.18 | 54 ± 1.08
O=C(Nc1nc2ccccc2s1)c1ccc(F)cc1 [Compound 2, N‐(Benzo[d]thiazol‐2‐yl)‐4‐fluorobenzamide] | 11.2 ± 0.49 | 1.884 | 17 ± 0.67 | 1.239 | 21.02 ± 0.21 | 3.879 ± 0.868 ng/μg protein | – | – | –
O=C(Cc1cccs1)Nc1nc2ccccc2s1 [Compound 25, N‐(Benzo[d]thiazol‐2‐yl)‐2‐(thiophen‐2‐yl) acetamide] | – | 10.189 | – | 9.360 | – | – | 13.21 ± 0.03 | 14.4 ± 0.18 | 135 ± 1.83
O=C(NCc1nc2ccccc2s1)c1ccco1 [Compound 15, N‐(Benzo[d]thiazol‐2‐ylmethyl) furan‐2‐carboxamide] | 8.83 ± 0.43 | 3.031 | 11.78 ± 0.11 | 2.272 | 26.8 ± 0.84 | 0.155 ng/μg protein and 0.155 ± 0.045 ng/μg protein | – | – | –
N.N.[Cl][Pt][Cl] [Cisplatin, reference compound] | – | 5.118 | – | 1.195 | – | – | 7.03 ± 0.04 | 30.1 ± 1.39 | 36 ± 2.01
Cc1ccc(C(=O)NCc2nc3ccccc3s2)cc1 [Compound 18, N‐(Benzo[d]thiazol‐2‐ylmethyl)‐4‐methylbenzamide] | 11.2 ± 0.75 | 2.604 | 20.2 ± 0.73 | 1.442 | 29.1 ± 0.52 | 1.34 ± 0.154 ng/μg protein | – | – | –
COc1ccc(CC(=O)Nc2nc3ccccc3s2)cc1 [Compound 24, N‐(Benzo[d]thiazol‐2‐yl)‐2‐(4‐methoxyphenyl) acetamide] | – | 6.440 | – | 6.306 | – | – | 12.7 ± 0.18 | 12.9 ± 0.19 | 81.5 ± 1.07
COc1cccc(CC(=O)NCc2nc3ccccc3s2)c1 [Compound 26, N‐(Benzo[d]thiazol‐2‐ylmethyl)‐2‐(3‐methoxyphenyl) acetamide] | – | 2.047 | – | 1.753 | – | – | 13.5 ± 0.35 | 15.8 ± 0.52 | 27.7 ± 0.78
COc1ccc(OC)c(CC(=O)Nc2nc3ccccc3s2)c1 [Compound 20, N‐(Benzo[d]thiazol‐2‐yl)‐2‐(2,5‐dimethoxyphenyl) acetamide] | – | 5.977 | – | 5.464 | – | – | 14.7 ± 0.15 | 16.07 ± 0.12 | 87.8 ± 1.29
O=C(Nc1nc2ccccc2s1)c1ccco1 [Compound 4, N‐(Benzo[d]thiazol‐2‐yl) furan‐2‐carboxamide] | 11.08 ± 0.08 | 2.349 | 19.9 ± 0.36 | 1.305 | 26.03 ± 0.13 | 8.529 ± 0.9 ng/μg protein | – | – | –
COc1cccc2c1C(=O)c1c(O)c3c(c(O)c1C2=O)C[C@@](O)(C(=O)CO)C[C@@H]3O[C@H]1C[C@H](N)[C@H](O)[C@H](C)O1 [Doxorubicin, reference compound] | 5.8 ± 0.15 | 4.131 | 9.27 ± 0.21 | 2.584 | 24 ± 1.07 | – | – | – | –
O=C(NCc1nc2ccccc2s1)c1ccc(Cl)cc1 [Compound 11, N‐(Benzo[d]thiazol‐2‐ylmethyl)‐4‐chlorobenzamide] | 15.6 ± 0.65 | 2.304 | 10 ± 0.36 | 3.583 | 35.87 ± 0.23 | – | – | – | –
O=C(NCc1nc2ccccc2s1)c1ccc(C(F)(F)F)cc1 [Compound 13, N‐(Benzo[d]thiazol‐2‐ylmethyl)‐4‐(trifluoromethyl) benzamide] | – | 2.534 | – | 3.273 | – | – | 12.9 ± 0.86 | 10 ± 0.43 | 32.8 ± 0.43
O=C(NCc1nc2ccccc2s1)c1ccc(Br)cc1 [Compound 16, N‐(Benzo[d]thiazol‐2‐ylmethyl)‐4‐bromobenzamide] | 14.1 ± 0.95 | 2.536 | 20.25 ± 0.19 | 1.766 | 35.8 ± 0.46 | – | – | – | –
O=C(Cc1ccc(Cl)cc1)NCc1nc2ccccc2s1 [Compound 27, N‐(Benzo[d]thiazol‐2‐ylmethyl)‐2‐(4‐chlorophenyl) acetamide] | – | 2.666 | – | 2.243 | – | – | 12.3 ± 0.96 | 14.7 ± 0.63 | 32.9 ± 0.35
O=C(Nc1nc2ccccc2s1)c1ccccc1 [Compound 7, N‐(Benzo[d]thiazol‐2‐yl) benzamide] | 12.4 ± 0.97 | 2.171 | 11.8 ± 0.57 | 2.284 | 26.9 ± 0.97 | – | – | – | –
O=C(Nc1nc2ccccc2s1)c1ccc(C(F)(F)F)cc1 [Compound 6, N‐(Benzo[d]thiazol‐2‐yl)‐4‐(trifluoromethyl) benzamide] | – | 1.772 | – | 2.197 | – | – | 13.5 ± 0.37 | 10.9 ± 0.28 | 23.9 ± 0.32

— PMC11975549, “Development of Potent Type V MAPK Inhibitors: Design, Synthesis, and Biological Evaluation of Benzothiazole Derivatives Targeting p38α MAPK in Breast Cancer Cells” (Archiv Der Pharmazie, 2025)
